In patent US11866458B2, “Panaxadiol glycoside derivative and preparation method and application thereof” (SUZHOU JI ER BIOLOGICAL MEDICINE CO., LTD., priority 2018, dated 2024):
Marks after values point to notes of the source that are not given here.

Tests used:
[1] = test system: inflammatory cells in bronchoalveolar lavage fluid of mice; experiment: Determination of inflammatory cells in bronchoalveolar lavage fluid of mice (OVA asthma model); type: in vivo, BALB/C mice; parameters: unit not given here
Method: 144 6-week-old BALB/C mice (18-20 g) were divided into 24 groups: control group, placebo group, dexamethasone group (3 mg/kg) and the drug groups. There were 6 in each group. The control group was given normal saline without any treatment. The other groups were sensitized by intraperitoneal injection of OVA 20 μg and aluminum hydroxide 200 μL PBC (2 mg, prepared into emulsion). […] On day 21, 22 and 23, the therapeutic agent (i.e. 3 mg/kg dexamethasone in the positive control group and oral administration in the drug group) was given orally. From day 17 to 23, PBS was given to the control group and placebo group respectively, PBS (without OVA) was given to the control group. On day 0 and day 14, the normal saline was nebulized for 30 minutes to remove the aluminum hydroxide on day 21, 22 and 23 See in Table 2.

[2] = test system: mouse asthma model induced by OVA; experiment: Asthma induced by ovalbumin in Balb/c mice: IgE level in serum by ELISA; type: in vivo; details: oral
ICR mice [3] = experiment: Blood glucose of caudal vein after 6 days of intragastric administration; details: 1.8 mg/kg
Method: The mice were intragastric administration for 6 consecutive days, fasting was started at about 8:00 in the morning on the sixth day, and blood glucose in caudal vein was measured at about 4:00 in the next day.

ICR mice [4] = experiment: Blood routine test after 6 days of intragastric administration; details: 1.8 mg/kg
Method: Mice were intragastric administration for 6 consecutive days, and sufficient blood samples were taken for blood routine test 1 hour after the last dose.

[5] = test system: COPD rats induced by smoke exposure; experiment: COPD induced by smoke exposure in rats: lung function FEV0.2/FVC; type: in vivo, Wistar rats; details: for FEV2/FVC % (FEV0.2/FVC %, forced expiratory index within 200 ms): 180 days; for effect in COPD rats compared with inhaled budesonide: high dose group, oral
[6] = 3 mg/kg, oral (positive control)
[7] = Table 1-1 (1st time), 20 mg/kg, 24 hours after last OVA stimulation

SMILES | Acidic cells in bronchoalveolar lavage fluid ([1]; 2 mg/kg, oral) | Neutral cells in bronchoalveolar lavage fluid ([1]; 2 mg/kg, oral) | Total inflammatory cells in bronchoalveolar lavage fluid ([1]; 2 mg/kg, oral) | lymphocyte in bronchoalveolar lavage fluid ([1]; 2 mg/kg, oral) | Acidic cells in bronchoalveolar lavage fluid ([1]; 20 mg/kg, oral) | Total inflammatory cells in bronchoalveolar lavage fluid ([1]; 20 mg/kg, oral) | lymphocyte in bronchoalveolar lavage fluid ([1]; 20 mg/kg, oral) | Acidic cells in bronchoalveolar lavage fluid ([1]; 200 mg/kg, oral) | Neutral cells in bronchoalveolar lavage fluid ([1]; 200 mg/kg, oral) | Total inflammatory cells in bronchoalveolar lavage fluid ([1]; 200 mg/kg, oral) | lymphocyte in bronchoalveolar lavage fluid ([1]; 200 mg/kg, oral) | Concentration of IgE in serum [2, 7] [ng/mL] | Concentration of IgE in serum ([2]; Table 1-2 (2nd time), 15 mg/kg) [ng/mL] | Concentration of IgE in serum ([2]; Table 1-2 (2nd time), 30 mg/kg) [ng/mL] | Concentration of IgE in serum ([2]; Table 1-2 (2nd time), 60 mg/kg) [ng/mL] | FEV2/FVC % (FEV0.2/FVC %, forced expiratory index within 200 ms) ([5]; 20 mg/kg oral) [%] | FEV2/FVC % (FEV0.2/FVC %, forced expiratory index within 200 ms) ([5]; 40 mg/kg oral) [%] | FEV2/FVC % (FEV0.2/FVC %, forced expiratory index within 200 ms) ([5]; 80 mg/kg oral) [%] | effect in COPD rats compared with inhaled budesonide [5] | Neutral cells in bronchoalveolar lavage fluid ([1]; 20 mg/kg, oral) | other results
CC(=O)OCC(=O)[C@@]1(O)[C@H](C)C[C@H]2[C@@H]3CCC4=CC(=O)C=C[C@]4(C)[C@@]3(F)[C@@H](O)C[C@@]21C [Dexamethasone acetate tablets, Dexamethasone acetate] |  |  |  |  |  |  |  |  |  |  |  |  |  |  |  |  |  |  |  |  | Acidic cells in bronchoalveolar lavage fluid [1, 6]: 7.49 ± 5.25; Neutral cells in bronchoalveolar lavage fluid [1, 6]: 9.64 ± 5.16; Total inflammatory cells in bronchoalveolar lavage fluid [1, 6]: 36.12 ± 14.89; lymphocyte in bronchoalveolar lavage fluid [1, 6]: 8.46 ± 5.73; Concentration of IgE in serum ([2]; Table 1-1 (1st time), 0.6 mg/kg, 24 hours after last OVA stimulation): 1131.05 ± 211.85 ng/mL; Concentration of IgE in serum ([2]; Table 1-2 (2nd time), 0.6 mg/kg): 1367.07 ± 103.80 ng/mL; blood glucose in mice compared with blank control group (ICR mice [3]): increase blood glucose; Blood glucose (ICR mice [3]; intragastric, 6 days, fasted, caudal vein): 5.78 ± 0.36 mmol/L; leukocyte count compared to blank control group (ICR mice [4]): decreased significantly; lymphocyte percentage compared to blank control group (ICR mice [4]): decreased significantly; monocyte percentage compared to blank control group (ICR mice [4]): increased significantly; neutrophil percentage compared to blank control group (ICR mice [4]): increased significantly; Ba % (ICR mice [4]; intragastric, 6 days): 0.04 ± 0.03%; Eo % (ICR mice [4]; intragastric, 6 days): 0.09 ± 0.02%; Ly % (ICR mice [4]; intragastric, 6 days): 42.59 ± 28.17 %; Mo % (ICR mice [4]; intragastric, 6 days): 12.08 ± 6.28 %; Ne % (ICR mice [4]; intragastric, 6 days): 45.17 ± 16.22 %; WBC (ICR mice [4]; intragastric, 6 days, 1 hour after last dose): 1.26 ± 0.49** 10^2/mm^3
CC(C)=CCC[C@](C)(O[C@@H]1OC(CO)[C@@H](O)[C@H](O)C1O)C1CC[C@]2(C)C1C(=O)CC1[C@@]3(C)CC[C@H](O)C(C)(C)C3CC[C@]12C (stereo partly drawn) [IB, 3β-hydroxyl-20(S)—O-β-D-glucopyranosyl dammarane-24-ene-12-one] | 31.19 ± 8.46 | 12.11 ± 7.22 | 46.76 ± 25.18 | 10.07 ± 6.12 | 9.35 ± 4.16 | 25.18 ± 13.12 | 7.53 ± 4.95 | 5.14 ± 3.08 | 3.49 ± 2.37 | 12.53 ± 6.23 | 3.75 ± 2.18 | 1337.11 ± 216.28 | 2023.33 ± 203.47 | 1909.19 ± 121.73 | 1769.13 ± 164.34 | 65.14 ± 12.78 | 73.59 ± 10.81 | 82.16 ± 9.01 | superior to budesonide |  | 
CC(C)=CCC[C@](C)(O[C@@H]1OC(CO)[C@H](O)[C@H](O)C1O)C1CC[C@]2(C)C1C(=O)CC1[C@@]3(C)CC[C@H](O)C(C)(C)C3CC[C@]12C (stereo partly drawn) [IC, 3p-hydroxyl-20(S)—O-β-D-galactopyranosyl dammarane-24-ene-12-one] | 31.51 ± 16.14 | 13.29 ± 7.12 | 50.77 ± 32.49 | 9.30 ± 6.85 | 18.44 ± 7.78 | 32.95 ± 21.07 | 6.49 ± 5.28 | 8.72 ± 3.31 | 5.17 ± 3.19 | 18.25 ± 9.48 | 3.77 ± 2.81 | 975.82 ± 260.32 | 1908.70 ± 221.74 | 1738.93 ± 124.22 | 1575.92 ± 148.33 | 65.45 ± 14.17 | 76.64 ± 7.98 | 83.15 ± 8.42 | superior to budesonide | 8.16 ± 5.03 | 
CC(C)=CCC[C@](C)(O[C@H]1OC(CO)[C@@H](O)[C@H](O)C1O)C1CC[C@]2(C)C1C(=O)CC1[C@@]3(C)CC[C@H](O)C(C)(C)C3CC[C@]12C (stereo partly drawn) [ID, 3β-hydroxyl-20(S)—O-α-D-mannopyranosyl dammarane-24-ene-12-one] | 34.15 ± 18.88 | 13.18 ± 7.76 | 46.39 ± 22.74 | 14.38 ± 8.71 | 15.17 ± 8.34 | 29.46 ± 13.56 | 8.92 ± 6.89 | 6.79 ± 3.87 | 4.39 ± 3.13 | 13.81 ± 6.76 | 4.16 ± 317 | 1336.96 ± 211.85 | 1571.67 ± 134.04 | 1427.83 ± 164.28 | 1264.95 ± 127.60 | 66.28 ± 13.54 | 75.23 ± 10.71 | 86.34 ± 8.60 | superior to budesonide | 6.26 ± 4.73 | content of IgE in mice serum (conclusion in words) ([2]; model of mouse asthma induced by OVA, samples): significantly reduce; therapeutic effect on bronchial asthma induced by OVA ([2]; mouse): obvious therapeutic effect
CC(C)=CCC[C@](C)(O[C@@H]1OC(CO)[C@@H](O)[C@H](O)C1O)C1CC[C@]2(C)C1/C(=N\O)CC1[C@@]3(C)CC/C(=N\O)C(C)(C)C3CC[C@]12C (stereo partly drawn) [IVA, 20(S)—O-β-D-glucopyranosyl dammarane-3,12-hydroxyl imino-24-ene-12-one] | 29.09 ± 4.83 | 9.15 ± 5.68 |  | 15.35 ± 9.23 | 15.83 ± 2.88 | 32.46 ± 17.21 | 5.24 ± 3.34 | 4.45 ± 2.14 | 6.17 ± 4.09 | 14.69 ± 5.77 | 4.19 ± 3.48 | 1358.27 ± 248.70 | 2026.13 ± 273.15 | 1927.60 ± 151.61 | 1723.86 ± 167.59 | 66.25 ± 11.49 | 75.98 ± 9.26 | 88.33 ± 12.49 | superior to budesonide | 7.38 ± 3.09 | 
